Earlier results, collected in US11433058B2, “Non-pulsatile prolonged-release betahistine oral solid compositions” (INTAS PHARMACEUTICALS LTD., priority 2017, dated 2022).
Structures can show the parent of a compound that is named as a salt.

Columns and labels:
[1] = oral; immediate release tablet or orodispersible tablet (Betaserc SmPC)
[2] = per WO2014001267

absolute bioavailability [1]	water solubility [2]	Structure (SMILES)
about 99%		O=C(O)Cc1ccccn1 [Example 2-PAA, 2-pyridylacetic acid]
	49.3 mg/mL	CNCCc1ccccn1 [Betahistine dihydrochloride]
